Test results: the supplement of paper PMC7801607

What was measured:
[1] = test system: Plasmodium falciparum Dd2 asexual blood stage
[2] = test system: Plasmodium falciparum NF54 asexual blood stage
[3] = test system: Plasmodium falciparum NF54 stage IV/V gametocytes
Description: (§1)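 Dose-response IC50s: P. falciparum NF54 asexual (pLDH, 72 h; 6 means >6 µM), Dd2 asexual (SYBR Green I, 72 h, 1536-well; 5 means >5 µM), NF54 stage IV/V gametocytes (luciferase 48 h, ATP 24 h, PrestoBlue 48 h), P. berghei liver stage in HepG2-A16-CD81 (luciferase, 48 h; 5 means >5 µM), HepG2 CC50 (CellTiter-Glo; 5 means >5 µM).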

[4] = test system: Plasmodium falciparum NF54 stage IV/V gametocytes; remark: listed apart in the source
Description: as §1

[5] = test system: Plasmodium berghei ANKA liver stage in HepG2-A16-CD81
HepG2-A16-CD81 = assay: CC50; higher = less toxic
Description: as §1

Row | Compound | IC50 [1] [µM] | IC50 [2] [µM] | IC50 (luciferase reporter) [3] [µM] | IC50 (ATP bioluminescence) [4] [µM] | IC50 [5] [µM] | CC50 (HepG2-A16-CD81) [µM]
1 | Cc1nc2ccc(Oc3ccccc3)cc2c2c1CCN2CCc1ccccc1 | > 5 | 3.01 | 46.3 | 1.13 | – | –
2 | CN(C)CCCOc1ccc(-c2ccc3ncc4c(c3c2)n(C2CCOCC2)c(=O)n4C)cn1 | 0.776 | 4 | 1.67 | – | 1.05 | > 5
3 | CN1CCN(Cc2ccc(-c3cnc4[nH]cc(-c5ccc6[nH]ccc6c5)c4c3)cc2)CC1 | 1.9 | 1.39 | – | 1.66 | 2.51 | > 5
4 | O=C(/C(=C/c1ccc(Cl)cc1Cl)n1ccnc1)c1ccc(Cl)cc1 | 3.32 | 2.63 | 7.08 | 0.824 | – | –
5 | Oc1cccc(C(Nc2nccs2)c2ccc3cccnc3c2O)c1 (configuration not stated) | > 5 | 3.46 | 15.9 | 5.02 | – | –
6 | O=C(Nc1ccc(F)cc1)c1nn(-c2ccccc2)c(=O)cc1Cl | > 5 | – | 30.6 | – | – | –
7 | CC(C)(C)c1ccc(Oc2ccc(N)cc2)cc1 | > 5 | – | 1.08 | – | – | –
8 | CCCCC(CC)CNC(=N)NC(=N)NCCCCCCNC(=N)NC(=N)NCC(CC)CCCC (configuration not stated) | 0.023 | 0.109 | 1.03 | 0.825 | 2.17 | 4.13
9 | CCOc1ccc(C(=O)NCCc2ccccc2)cc1 | > 5 | – | 11.4 | – | – | –
10 | N=c1n(CCN2CCCCC2)c2ccccc2n1CC(O)COc1ccc(Cl)cc1Cl (configuration not stated) | 0.831 | 1.07 | 3.81 | 0.34 | 2.79 | > 5
11 | CC(C)/N=c1\cc2n(-c3ccc(Cl)cc3)c3ccccc3nc-2cc1Nc1ccc(Cl)cc1 | 2.85 | 0.878 | – | – | > 5 | > 5
12 | Cc1cccc(C)c1C(=O)Nc1nc(-c2ccccn2)cc2ccccc12 | > 5 | > 6 | 4.03 | 0.496 | – | –
13 | Cc1[nH]c2ccccc2c1CCNCc1ccc(/C=C/C(=O)NO)cc1 | 0.007 | 0.0585 | – | – | 0.0561 | 0.141
14 | O=c1cc(NCCCN[C@@H]2CCOc3c(Br)cc(Br)cc32)[nH]c2ccsc12 | 1.61 | – | – | – | 1.73 | > 5
15 | COc1cc(C)c2c(Oc3cccc(C(F)(F)F)c3)c(OC)cc(NC(C)CCCN)c2n1 (configuration not stated) | 0.506 | 0.94 | 7.69 | 1.4 | 3.35 | > 5
16 | Oc1c(C(Nc2nc3ccccc3s2)c2ccc(OC(F)F)cc2)ccc2cccnc12 (configuration not stated) | 3.15 | 1.67 | 5.4 | – | – | –
17 | CN1CCN(c2ccc3[nH]c(-c4ccc5[nH]c(-c6ccc(O)cc6)nc5c4)nc3c2)CC1 | 0.022 | 0.149 | – | – | > 5 | > 5
18 | CCc1nc(N)nc(N)c1C#CC(C)c1cc(OC)cc(-c2ccncc2)c1 (configuration not stated) | 1.74 | 0.0017 | – | – | 0.00422 | > 5

Row | Compound | IC50 [1] [µM] | IC50 [2] [µM] | IC50 (luciferase reporter) [3] [µM] | IC50 (ATP bioluminescence) [4] [µM] | IC50 [5] [µM] | CC50 (HepG2-A16-CD81) [µM]
19 | O=C(Nc1cccc(C2=NCCN2)c1)c1ccc(-c2ccc(C(=O)Nc3cccc(C4=NCCN4)c3)cc2)cc1 | 0.0194 | 0.0448 | 0.48 | – | > 5 | > 5
20 | C(=C\c1nc2ccccc2[nH]1)/c1ccc2c(c1)OCO2 | > 5 | – | 3.92 | – | – | –
21 | N=C(N)NCCCCC(=O)Nc1cc(C(F)(F)F)cc(NC(=O)c2cc(C(=O)Nc3cc(C(F)(F)F)cc(NC(=O)CCCCNC(=N)N)c3O[C@@H]3CCNC3)ncn2)c1O[C@@H]1CCNC1 | 3.36 | 2.21 | 6.07 | – | – | –
22 | CCN(CC)CCCC(C)Nc1ccnc2cc(Cl)ccc12 (configuration not stated) | 0.0507 | 0.0301 | – | – | > 5 | > 5
23 | COc1cc(NCc2ccc3nc(N)nc(N)c3c2C)cc(OC)c1OC | 0.108 | – | – | – | 0.000527 | 1.66
24 | CC[C@@]1(O)C(=O)OCc2c1cc1n(c2=O)Cc2cc3c([N+](=O)[O-])cccc3nc2-1 | 4.44 | – | – | – | 3.57 | > 5
25 | CC[C@H](NC(=O)[C@H](C)NC)C(=O)N1C[C@@H](O)C[C@H]1Cc1c(-c2[nH]c3cc(F)ccc3c2C[C@@H]2C[C@H](O)CN2C(=O)[C@H](CC)NC(=O)[C@H](C)NC)[nH]c2cc(F)ccc12 | 0.236 | 0.987 | 5.21 | 1.53 | 0.128 | > 5
26 | Cn1cc(NC(=O)c2cc(NC(=O)c3ccc(/C=C/c4cnc5ccccc5c4)cc3)cn2C)cc1C(=O)NCCN1CCOCC1 | 0.0694 | 0.0621 | 0.103 | – | 1.99 | > 5
27 | CCC(C)NCC(O)Cn1c2ccc(Cl)cc2c2cc(Cl)ccc21 (configuration not stated) | 0.0516 | 0.383 | 7.64 | 2.91 | > 5 | > 5
28 | NC(=S)N/N=C/c1ncccc1N | 1.28 | 1.64 | – | – | 0.641 | > 5
29 | Nc1nc(Nc2ccc3nc(-c4ccc(F)cc4)cc(N)c3c2)cc(-c2ccccc2)n1 | 0.055 | 0.0495 | 0.152 | 0.0799 | > 5 | > 5
30 | COc1nc2ccc(Br)cc2cc1[C@@H](c1ccccc1)[C@@](O)(CCN(C)C)c1cccc2ccccc12 | 2.05 | > 6 | – | – | > 5 | > 5
31 | O=C1C=C(c2ccccc2)S(=O)(=O)c2ccccc21 | > 5 | – | 25.7 | 2.16 | – | –
32 | COC1CC2CCC(C)C(O)(O2)C(=O)C(=O)N2CCCCC2C(=O)OC(C(C)CC2CCC(OCCO)C(OC)C2)CC(=O)C(C)/C=C(\C)C(O)C(OC)C(=O)C(C)CC(C)/C=C/C=C/C=C/1C (configuration not stated) | 2.06 | – | – | – | > 5 | > 5
33 | CCOC(=O)Nc1cc(NC(C)CC(C)CN(CC)CC)c2nc(-c3ccccc3)c(-c3ccccc3)nc2n1 (configuration not stated) | 4.05 | – | 28.6 | 4.26 | – | –
34 | N#Cc1c(F)c(Cl)c(NCc2ccccc2)c(C#N)c1F | > 5 | > 6 | 31.6 | – | – | –
35 | CCN(CC)CCn1c(=N)n(CC(O)COc2ccc(Cl)cc2Cl)c2ccccc21 (configuration not stated) | 0.791 | 0.678 | 3.8 | 0.35 | > 5 | > 5
36 | Clc1cc(Cl)c2c(c1)CCc1ccccc1C2n1ccnc1 (configuration not stated) | 3.38 | 1.48 | 7.65 | 4.23 | > 5 | > 5
